Laboratory results reported in patent publication US20240206462A1, “ESSENTIAL OIL-BASED AGRICULTURAL COMPOSITION AND METHOD FOR CONTROLLING A PEST USING THE SAME” (MOMENTIVE PERFORMANCE MATERIALS INC., priority 2021, published 2024).

Tested on: tomato grey mold (Botrytis cinerea)
Assay: Plate method growth inhibition of fungal plant pathogen on PDA medium
Assay type: cell-based
Settings: concluded from geraniol-based compositions

In the case of CC(C)=CCCC(C)=CCO [geraniol, 3,7-dimethylocta-2,6-dien-1-ol], the “inhibition activity on Botrytis genus, especially Botrytis cinerea” value is reported as “high inhibition activity”.
